Experimental data as given in patent US12540148B2, “Lipophosphonoxins, their preparation and use” (USTAV ORGANICKE CHEMIE A BIOCHEMIE AV CR, V. V. I., priority 2019, dated 2026).
Where a name gives a salt, the structure may show the parent alone. Read-outs that look alike come from different tables or passages of the source.

Tests used:
Format in all cases: cell-based
[1] = system: Escherichia coli ATCC 25922 = CCM 3954; assay: MIC, microdilution method
Experimental: (§1) Disposable microtiter plates are used for testing. Samples are dissolved in infusion medium from brain and heart (BHI, HiMedia Laboraties Pvt. Ltd., Czech Republic) and Mueller-Hinton broth (HiMedia Laboraties, see above) to a final concentration ranging from 200 μg/ml to 1.5625 μg/ml. Plates are inoculated with a standard amount of test bacteria—the density of the inoculum in the well corresponds to 10^5-6 CFU/ml (colony forming units/ml, i.e. the number of viable bacterial cells/ml). MIC values are read after 24/48 hours of incubation at 37° C. as the minimum inhibitory concentration of the test substance at which bacterial growth is inhibited. The minimum bactericidal concentration (MBC) is characterized as the minimum concentration of the sample required to achieve irreversible inhibition, i.e. to kill the bacteria after a defined incubation period. MBC is determined by the inoculation method. Using an applicator, 10 μl from the well of a microtiter plate with a defined concentration of the test substance is taken to inoculate the surface of blood agar (Trios, Czech Republic). MBC is determined as the lowest concentration that inhibits the visible growth of the bacterium used on agar.

[2] = system: Staphylococcus epidermidis CCM 7221; assay: MIC, microdilution method
Experimental: as §1

[3] = system: Enterococcus faecalis ATCC 29212 = CCM 4224; assay: MIC, microdilution method
Experimental: as §1

Escherichia coli CE5556 = assay: MIC, microdilution method
Experimental: as §1

[4] = system: Staphylococcus aureus ATCC 29213 = CCM 4223; assay: MIC, microdilution method
Experimental: as §1

Pseudomonas aeruginosa R = assay: MIC, microdilution method
Experimental: as §1

Enterobacter kobei 3683 = assay: MIC, microdilution method
Experimental: as §1

[5] = system: Pseudomonas aeruginosa ATCC 27853 = CCM 3955; assay: MIC, microdilution method
Experimental: as §1

[6] = system: Staphylococcus aureus 4591; assay: MIC, microdilution method
Experimental: as §1

[7] = system: Enterococcus faecium 419/ANA; assay: MIC, microdilution method
Experimental: as §1

erythrocytes = assay: Haemolytic activity of soluble samples
Experimental: Blood from three donors is mixed and centrifuged (10 min, 1000 g, 4° C.). The erythrocytes obtained are washed three times with NaCl solution (150 mmol·l^−1) and then used for experiments. Sample stock solutions are prepared in DMSO so that the final concentration of DMSO in NaCl is 0.5% (v/v). NaCl solution with the appropriate volume of DMSO serves as the negative control. 1% Triton-X100 is the positive control. The erythrocytes obtained are diluted to 2% with NaCl solution and pipetted into Eppendorf tubes (250 μl) with constant stirring. Samples and positive and negative controls are added to the erythrocytes prepared in this way and incubated (3 hours, 37° C.). The tubes are stirred during the incubation. After centrifugation (5 min, 1000 g), haemolytic activity is monitored by haemoglobin determination. The HC50 value is calculated from the measured absorbance values. The test is performed in triplets in three independent replicates. Iron Fe^2+ in haemoglobin is oxidized with potassium ferricyanide to iron Fe^3+ in methaemoglobin, which produces stable cyanomethaemoglobin with potassium cyanide, the concentration of which is determined spectrophotometrically. After the incubation of the erythrocytes with the substances, the cells are centrifuged (5 min, 1000 g), then Drabkin's solution (200 μl) is added to the supernatant (40 μl) and after incubation (10 min), the absorbance at 540 nm is measured.

[8] = system: Candida albicans ATCC 90028 = CCM 8161; assay: MIC, microdilution method
[9] = Staphylococcus epidermidis, CCM7221

Row | Molecule | HC50 ± SD (erythrocytes) | MIC ([1]; Escherichia coli) | MIC [2, 9] | MIC ([3]; Enterococcus faecalis) | MIC (Escherichia coli CE5556; Escherichia coli, CE5556) | MIC ([4]; Staphylococcus aureus) | MIC (Pseudomonas aeruginosa R; Pseudomonas aeruginosa) | MIC (Enterobacter kobei 3683; Enterobacter kobei, 3683) | MIC ([5]; Pseudomonas aeruginosa) | MIC ([6]; Staphylococcus aureus, 4591) | MIC ([7]; Enterococcus faecium, 419/ANA) | MIC ([8]; Candida albicans) | other results
1 | Dibutyl dodecane-1,12-diyl bis((2-(bis(3-aminopropyl)amino)ethyl)-phosphonate) hexahydrochloride [Example 47] | >100 | – | – | – | – | – | – | – | – | – | – | – | MIC [1]: 16 µg/mL; MIC [2]: 0.5 µg/mL; MIC [3]: 2 µg/mL; MIC (Escherichia coli CE5556): 32 µg/mL; MIC [4]: 1 µg/mL; MIC (Pseudomonas aeruginosa R; 24/48 hours at 37° C.): 4 µg/mL; MIC (Enterobacter kobei 3683): 128 µg/mL; MIC [5]: 4 µg/mL; MIC [6]: 1 µg/mL; MIC [7]: 16 µg/mL; MIC [8]: 16 µg/mL
2 | CC(C)COP(=O)(CCN(CCCN)CCCN)OCCCCCCCCCCCCOP(=O)(CCN(CCCN)CCCN)OCC(C)C (centres unmarked) [Example 46, Dodecane-1,12-diyl diisobutyl bis((2-(bis(3-aminopropyl)amino)ethyl)-phosphonate) hexahydrochloride] | >100 | 128 µg/mL | 1 µg/mL | 32 µg/mL | > 128 µg/mL | 4 µg/mL | 16 µg/mL | > 128 µg/mL | 32 µg/mL | 4 µg/mL | > 128 µg/mL | 64 µg/mL | –
3 | CCCC/C=C\CCOP(=O)(CCN(CCCN)CCCN)OCCCCCCOP(=O)(CCN(CCCN)CCCN)OCC/C=C\CCCC (centres unmarked) [Example 57, Hexane-1,6-diyl di((Z)-oct-3-en-1-yl) bis((2-(bis(3-aminopropyl)amino)-ethyl)phosphonate) hexahydrochloride] | 34.8 | 2 µg/mL | 0.5 µg/mL | 16 µg/mL | 2 µg/mL | 1 µg/mL | 16 µg/mL | – | 16 µg/mL | 1 µg/mL | 64 µg/mL | 64 µg/mL | –
4 | CCCCCOP(=O)(CCN(CCCN)CCCN)OCCCCCCCCCCCCOP(=O)(CCN(CCCN)CCCN)OCCCCC (centres unmarked) [Example 48, Dodecane-1,12-diyl dipentyl bis((2-(bis(3-aminopropyl)amino)ethyl)-phosphonate) hexahydrochloride] | 4 | 1 µg/mL | 0.5 µg/mL | 1 µg/mL | 1 µg/mL | 1 µg/mL | 2 µg/mL | 1 µg/mL | 2 µg/mL | 1 µg/mL | 1 µg/mL | 2 µg/mL | –
5 | CCCCCCOP(=O)(CCN(CCN)CCN)OCCCCCCCCOP(=O)(CCN(CCN)CCN)OCCCCCC (centres unmarked) [Example 55, Dihexyl octane-1,8-diyl bis((2-(bis(2-aminoethyl)amino)ethyl)phosphonate) hexahydrochloride] | >100 | > 128 µg/mL | 2 µg/mL | 128 µg/mL | > 128 µg/mL | 2 µg/mL | 64 µg/mL | > 128 µg/mL | 64 µg/mL | 4 µg/mL | > 128 µg/mL | 32 µg/mL | –
6 | Dodecan-1,10-diyl dioctyl bis((2-(bis(3-aminopropyl)amino)ethyl)-phosphonate) tetrahydrochloride [Example 49] | >100 | – | – | – | – | – | – | – | – | – | – | – | MIC [2]: 0.5 µg/mL; MIC [3]: 4 µg/mL; MIC (Escherichia coli CE5556): 16 µg/mL; MIC (Pseudomonas aeruginosa R; 24/48 hours at 37° C.): 8 µg/mL; MIC (Enterobacter kobei 3683): 128 µg/mL; MIC [5]: 8 µg/mL; MIC [6]: 4 µg/mL; MIC [7]: 32 µg/mL; MIC [8]: 8 µg/mL
7 | CCCC/C=C\CCOP(=O)(CCN(CCCN)CCCN)OCCCCCOP(=O)(CCN(CCCN)CCCN)OCC/C=C\CCCC (centres unmarked) [Example 58, Di((Z)-oct-3-en-1-yl) pentane-1,5-diyl bis((2-(bis(3-aminopropyl)amino)ethyl)-phosphonate) hexahydrochloride] | 70 | 8 µg/mL | 2 µg/mL | 2 µg/mL | 4 µg/mL | 0.5 µg/mL | 32 µg/mL | – | 32 µg/mL | 128 µg/mL | 4 µg/mL | 64 µg/mL | –
